The target in one assay is κ opioid receptor (Homo sapiens, UniProt P41145). As to the kind of experiment: κ-opioid receptor [35S]GTPγS functional assay, U-2 OS cells. Format: biochemical. Also noted: expressed in transfected cells; host or cells: U-2 OS (in-house membranes). Particulars: for Emax: read-out: GTPγS κ Emax. In general terms: GTPγS is a poorly hydrolysed GTP analogue; its binding reports G protein activation.

A further assay concerns the target μ-opioid receptor (Homo sapiens, UniProt P35372). As to the kind of experiment: μ-opioid receptor [35S]GTPγS functional assay, U-2 OS cells. Format: biochemical. Particulars: for Emax: relative to DAMGO. Also noted: expressed in transfected cells; host or cells: U-2 OS.
The mark [1] stands for this setting: U-2 OS cells, read-out: GTPγS κ EC50.
Setting [2] is: U-2 OS cells, relative to U69,593.
Where [3] appears, read: U-2 OS cells, read-out: GTPγS μ EC50.
Setting [4] is: U-2 OS cells, read-out: GTPγS μ Emax.
The mark [5] stands for this setting: read-out: GTPγS μ Emax, U-2 OS cells.
[6] abbreviates: U-2 OS cells, bound in μM, read-out: GTPγS κ EC50.

In patent publication US10138207B2, “Benzomorphan analogs and the use thereof” (priority 2012, dated 2018) one finds EC50 and Emax data, which are given here for 15 compounds.

SMILES strings stand for the structures. Where two headings read alike, the source gives them in different places.

Chain of κ opioid receptor (P41145 whole entry): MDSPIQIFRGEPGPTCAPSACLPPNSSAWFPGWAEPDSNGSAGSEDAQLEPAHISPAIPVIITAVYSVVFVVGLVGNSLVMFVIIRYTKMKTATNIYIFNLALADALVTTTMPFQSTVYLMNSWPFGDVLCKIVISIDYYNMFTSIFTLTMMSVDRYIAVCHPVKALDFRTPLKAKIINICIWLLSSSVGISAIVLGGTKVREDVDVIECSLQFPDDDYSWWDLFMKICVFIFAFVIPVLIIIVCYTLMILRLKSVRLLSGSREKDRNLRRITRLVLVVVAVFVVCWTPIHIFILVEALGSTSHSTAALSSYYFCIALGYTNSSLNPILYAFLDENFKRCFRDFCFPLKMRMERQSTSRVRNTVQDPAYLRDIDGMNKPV
Chain of μ-opioid receptor (P35372 whole entry, species assumed): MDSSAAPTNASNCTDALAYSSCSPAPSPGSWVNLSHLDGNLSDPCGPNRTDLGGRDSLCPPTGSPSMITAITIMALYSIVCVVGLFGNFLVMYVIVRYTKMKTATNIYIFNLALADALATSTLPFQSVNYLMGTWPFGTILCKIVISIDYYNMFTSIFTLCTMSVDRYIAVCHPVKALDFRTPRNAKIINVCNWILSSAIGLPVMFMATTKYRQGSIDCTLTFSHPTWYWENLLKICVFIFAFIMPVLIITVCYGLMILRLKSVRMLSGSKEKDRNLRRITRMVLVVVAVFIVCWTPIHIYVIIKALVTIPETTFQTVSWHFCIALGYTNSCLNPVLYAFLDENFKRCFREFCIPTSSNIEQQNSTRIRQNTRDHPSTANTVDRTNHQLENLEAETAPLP

Regarding `CN1CC[C@@]2(C)c3cc(O)ccc3C[C@@H]1[C@H]2N(C)C(=O)c1ccsc1` [Compound 125, N-((2R,6S,11S)-8-hydroxy-3,6-dimethyl-1,2,3,4,5,6-hexahydro-2,6-methanobenzo[d]azocin-11-yl)-N-methylthiophene-3-carboxamide], the values for the EC50 at κ opioid receptor (setting [1]) and on μ-opioid receptor (setting [3]) were 0.443 ± 0.0732 µM and 2.62 ± 0.396 µM, respectively. Also, the Emax (usually the size of the effect at its maximum, as opposed to the concentration needed) on κ opioid receptor (setting [2]) is 102 ± 5.69%; on μ-opioid receptor (setting [4]), 70.7 ± 2.33%.
In the case of `CN1CC[C@@]2(C)c3cc(O)ccc3C[C@@H]1[C@H]2N(C)C(=O)c1ccc(C(F)(F)F)cn1` [Compound 126, N-((2R,6S,11S)-8-hydroxy-3,6-dimethyl-1,2,3,4,5,6-hexahydro-2,6-methanobenzo[d]azocin-11-yl)-N-methyl-5-(trifluoromethyl)picolinamide], the EC50 (in general, the concentration giving half of the maximal effect) at κ opioid receptor (setting [1]) is 1.47 ± 0.0913 µM; on μ-opioid receptor (setting [3]) it was 0.147 ± 0.00947 µM. In addition, the Emax at κ opioid receptor (setting [2]) was found to be 63.7 ± 3.93%; at μ-opioid receptor (setting [4]), 103 ± 2.4%.
With `C[C@]12CCN(CC3CC3)[C@H](Cc3ccc(O)cc31)[C@@H]2NC(=O)c1ccsc1` [Compound 127, N-((2R,6S,11R)-3-(cyclopropylmethyl)-8-hydroxy-6-methyl-1,2,3,4,5,6-hexahydro-2,6-methanobenzo[d]azocin-11-yl)thiophene-3-carboxamide], the concentration giving a half-maximal response (EC50) at κ opioid receptor was 0.947 ± 0.068 µM; at μ-opioid receptor (GTPγS μ EC50, U-2 OS cells, bound in μM), over 20 µM. The figures for the maximal response (Emax) at κ opioid receptor and at μ-opioid receptor (setting [5]) were 93 ± 3.51% and 3.67 ± 1.2%, respectively.
As to `C[C@]12CCN(CC3CC3)[C@H](Cc3ccc(O)cc31)[C@@H]2NS(=O)(=O)c1cccc(C(F)(F)F)c1` [Compound 129, N-((2R,6S,11R)-3-(cyclopropylmethyl)-8-hydroxy-6-methyl-1,2,3,4,5,6-hexahydro-2,6-methanobenzo[d]azocin-11-yl)-3-(trifluoromethyl)benzenesulfonamide], the concentration for a half-maximal effect (EC50) at κ opioid receptor (setting [1]) is 0.00078 ± 7e-05 µM; at μ-opioid receptor (setting [3]) it was 0.00914 ± 0.00119 µM. For the same compound, the maximum response (Emax) at κ opioid receptor (setting [2]) stood at 97.3 ± 1.86%; on μ-opioid receptor (setting [4]) it was 20 ± 1.15%.
The matching figures for `CN([C@@H]1[C@H]2Cc3ccc(O)cc3[C@]1(C)CCN2CC1CC1)S(=O)(=O)c1cccc(C(F)(F)F)c1` [Compound 130, N-((2R,6S,11S)-3-(cyclopropylmethyl)-8-hydroxy-6-methyl-1,2,3,4,5,6-hexahydro-2,6-methanobenzo[d]azocin-11-yl)-N-methyl-3-(trifluoromethyl)benzenesulfonamide]: 0.0228 ± 0.00338 µM, 0.373 ± 0.105 µM, 71 ± 3.11% and 29 ± 2%.
On to `CN1CC[C@@]2(C)c3cc(O)ccc3C[C@@H]1[C@H]2N(C)S(=O)(=O)c1cccc(C(F)(F)F)c1` [Compound 131, N-((2R,6S,11S)-8-hydroxy-3,6-dimethyl-1,2,3,4,5,6-hexahydro-2,6-methanobenzo[d]azocin-11-yl)-N-methyl-3-(trifluoromethyl)benzenesulfonamide], for which the EC50 is over 20 µM on κ opioid receptor (setting [6]) and 0.29 ± 0.00532 µM at μ-opioid receptor (setting [3]). Further, the maximal response (Emax) was 0% on κ opioid receptor (setting [2]) and 69 ± 1% at μ-opioid receptor (setting [4]).
For the compound `CN1CC[C@@]2(C)c3cc(O)ccc3C[C@@H]1[C@@H]2N(C)S(=O)(=O)c1cccc(C(F)(F)F)c1` [Compound 132, N-((2R,6S,11R)-8-hydroxy-3,6-dimethyl-1,2,3,4,5,6-hexahydro-2,6-methanobenzo[d]azocin-11-yl)-N-methyl-3-(trifluoromethyl)benzenesulfonamide], the concentration giving a half-maximal response (EC50) came out at 0.0114 ± 0.00158 µM at κ opioid receptor (setting [1]) and 0.00303 ± 0.00017 µM at μ-opioid receptor (setting [3]). For the same compound, the maximum response (Emax) came to 89 ± 5.69% at κ opioid receptor (setting [2]) and 95.3 ± 2.6% on μ-opioid receptor (setting [4]).
`CN(C(=O)Nc1ccc(C(C)(C)C)cc1)[C@@H]1[C@H]2Cc3ccc(O)cc3[C@]1(C)CCN2CC1CC1` [Compound 133, 3-(4-(tert-butyl)phenyl)-1-((2R,6S,11S)-3-(cyclopropylmethyl)-8-hydroxy-6-methyl-1,2,3,4,5,6-hexahydro-2,6-methanobenzo[d]azocin-11-yl)-1-methylurea]: the concentration for a half-maximal effect (EC50) on κ opioid receptor (setting [1]) was 0.0217 ± 0.00316 µM; at μ-opioid receptor (setting [3]), 0.0039 ± 0.00074 µM. Further, the Emax on κ opioid receptor (setting [2]) stood at 42 ± 4.02%; at μ-opioid receptor (setting [4]) it was 22.3 ± 1.2%.
Consider `CN(C(=O)Nc1nc2cc(F)ccc2s1)[C@@H]1[C@H]2Cc3ccc(O)cc3[C@]1(C)CCN2CC1CC1` [Compound 134, 1-((2R,6S,11S)-3-(cyclopropylmethyl)-8-hydroxy-6-methyl-1,2,3,4,5,6-hexahydro-2,6-methanobenzo[d]azocin-11-yl)-3-(5-fluorobenzo[d]thiazol-2-yl)-1-methylurea], for which the EC50 was over 20 µM on κ opioid receptor and 0.00147 ± 0.00058 µM on μ-opioid receptor (GTPγS μ EC50, U-2 OS cells). Moreover, the values for the maximal effect (Emax) at κ opioid receptor and at μ-opioid receptor (setting [5]) were 90% and 16 ± 0.71%, respectively.
Take `C=CC[C@@]12CCN(C)C(Cc3ccc(OC)cc31)[C@@H]2N(C)C(=O)Nc1ccc(C#N)cc1` [Compound 135, 1-((6R,11R)-6-allyl-8-methoxy-3-methyl-1,2,3,4,5,6-hexahydro-2,6-methanobenzo[d]azocin-11-yl)-3-(4-cyanophenyl)-1-methylurea]: the 50% effective concentration (EC50) at κ opioid receptor (setting [1]) is 2.81 ± 0.397 µM; on μ-opioid receptor (setting [3]), 1.7 ± 0.112 µM. For the same compound, the Emax on κ opioid receptor (setting [2]) turned out to be 22 ± 2.52%; at μ-opioid receptor (setting [4]), 92 ± 2.65%.
Regarding `CCC[C@@]12CCN(C)C(Cc3ccc(OC)cc31)[C@@H]2N(C)C(=O)Nc1ccc(C#N)cc1` [Compound 136, 3-(4-cyanophenyl)-1-((6R,11R)-8-methoxy-3-methyl-6-propyl-1,2,3,4,5,6-hexahydro-2,6-methanobenzo[d]azocin-11-yl)-1-methylurea], the EC50 at κ opioid receptor (setting [1]) amounted to 3.83 ± 0.541 µM; on μ-opioid receptor (setting [3]), 2.33 ± 0.236 µM. The Emax worked out at 22.3 ± 3.71% at κ opioid receptor (setting [2]) and 62.3 ± 3.84% at μ-opioid receptor (setting [4]).
On to `CCC[C@@]12CCN(C)C(Cc3ccc(O)cc31)[C@H]2N(C)C(=O)Nc1ccc(C#N)cc1` [Compound 137, 3-(4-cyanophenyl)-1-((6R,11S)-8-hydroxy-3-methyl-6-propyl-1,2,3,4,5,6-hexahydro-2,6-methanobenzo[d]azocin-11-yl)-1-methylurea], for which the results for the EC50 at κ opioid receptor (setting [1]) and on μ-opioid receptor (setting [3]) were 3.37 ± 0.753 µM and 1.32 ± 0.177 µM, respectively. In addition, the Emax at κ opioid receptor (setting [2]) came to 30 ± 2.31%; on μ-opioid receptor (setting [4]), 50.3 ± 1.76%.
Consider `CCC[C@@]12CCN(C)C(Cc3ccc(OC)cc31)[C@H]2N(C)C(=O)Nc1ccc(CN)cc1` [Compound 138, 3-(4-(aminomethyl)phenyl)-1-((6R,11S)-8-methoxy-3-methyl-6-propyl-1,2,3,4,5,6-hexahydro-2,6-methanobenzo[d]azocin-11-yl)-1-methylurea], for which the EC50 was over 20 µM on κ opioid receptor (setting [6]) and over 20 µM at μ-opioid receptor (U-2 OS cells, bound in μM, read-out: GTPγS μ EC50). In addition, the Emax at κ opioid receptor (setting [2]) amounted to 35.5 ± 2.06%; on μ-opioid receptor (setting [4]), 45.3 ± 2.33%.
In the case of `CN1CC[C@@]2(C)c3cc(O)ccc3C[C@@H]1[C@@H]2NC(=O)Nc1nc2cc(F)ccc2s1` [Compound 139, 1-(5-fluorobenzo[d]thiazol-2-yl)-3-((2R,6S,11R)-8-hydroxy-3,6-dimethyl-1,2,3,4,5,6-hexahydro-2,6-methanobenzo[d]azocin-11-yl)urea], the half-maximal effective concentration (EC50) was found to be 0.0918 ± 0.00488 µM on κ opioid receptor (setting [1]) and 0.0125 ± 0.00218 µM on μ-opioid receptor (setting [3]). For the same compound, the Emax is 48 ± 5.13% at κ opioid receptor (setting [2]) and 87 ± 3.08% on μ-opioid receptor (setting [4]).
For the compound `CN1CC[C@@]2(C)c3cc(O)ccc3C[C@@H]1[C@@H]2N(C)C(=O)Nc1nc2cc(F)ccc2s1` [Compound 140, 3-(5-fluorobenzo[d]thiazol-2-yl)-1-((2R,6S,11R)-8-hydroxy-3,6-dimethyl-1,2,3,4,5,6-hexahydro-2,6-methanobenzo[d]azocin-11-yl)-1-methylurea], the concentration giving a half-maximal response (EC50) at κ opioid receptor (setting [1]) is 0.00468 ± 0.0004 µM; at μ-opioid receptor (setting [3]) it was 0.0001 ± 1e-05 µM. Moreover, the maximal response (Emax) came out at 107 ± 4.4% on κ opioid receptor (setting [2]) and 82 ± 0.91% on μ-opioid receptor (setting [4]).
